Test [1] addresses T1, T7 RNA polymerase (Escherichia phage T7, UniProt P00573). Briefly: Incorporation of 4′-thio UTP and 4′-thio CTP into RNA chain with T7 RNA polymerase (30mer transcript). Format: biochemical. The conditions noted are these: 0.4 mM NTPs, replacing the native NTP, 47mer double-stranded DNA template, 37° C., 3 hours. The protocol: Incorporation experiment using T7 RNA polymerase was performed with 4′-thio UTP and 4′-thio CTP. In this experiment, 47mer double-stranded DNA containing T7 promoter sequence was used (FIG. 9).
The reaction was conducted in 20 μL of a solution containing 40 mM Tris-HCl with pH 8.0, 8 mM MgCl2, 2 mM spermidine, 5 mM DTT, 0.4 mM NTPS, 17 nM [γ-^32P]GTP, 2.0 μM template DNA and 100 U T7 RNA polymerase. NTPs were (1) ATP, GTP, CTP and UTP, (2) using 4′-thio UTP instead of UTP, 3) using 4′-thio CTP instead of CTP, and 4) UTP and CTP were replaced with 4′-thio UTP and 4′-thio CTP. The reaction solution was incubated at 37° C. for 3 hours, and the reaction was stopped. Subsequently, electrophoresis was performed with 20% modified polyacrylamide gel (30×40×0.05 cm, 1800 V, 1 hour, 1×TEB), and analysed by autoradiography.
A relative transcription efficiency is shown in FIG. 10 with a transcription efficiency of native NTPs being defined as 100.

Test [2] addresses T1, T7 RNA polymerase. As to the kind of experiment: Incorporation of 4′-thio UTP into RNA chain with T7 RNA polymerase (26mer transcript). The conditions noted are these: 0.4 mM NTPs (GTP+ATP+CTP+4′-thio UTP), 100 U T7 RNA polymerase, 37° C., 3 hours; compared with lane 4 (native UTP). Format: biochemical. The protocol:
Incorporation experiment using T7 RNA polymerase was performed with 4′-thio UTP obtained in Example 9. In this experiment, double-stranded DNA containing T7 promoter sequence was used (FIG. 7).
The reaction was conducted in 20 μL of a solution containing 40 mM Tris-HCl with PH 8.0, 8 mM MgCl2, 2 mM spermidine, 5 mM DTT, 0.4 mM NTPs, 17 nM [γ-^32P]GTP, 2.0 μM template DNA and 100 U T7 RNA polymerase. NTPs were (1) GTP, (2) GTP+ATP, (3) GTP+ATP+CTP, (4) GTP+ATP+CTP+UTP, and (5) GTP+ATP+CTP+4′-thio UTP, respectively. The reaction solution was incubated at 37° C. for 3 hours, and the reaction was stopped. Subsequently, electrophoresis was performed with 20% modified polyacrylamide gel (30×40×0.05 cm, 1800 V, 1 hour, 1×TEB), and analysed by autoradiography.
In lane 1, bands corresponding to 2mer and 3mer of G and a rudder were observed. In lane 2, an expected band with chain elongation stopped at 6mer was observed, and a minor band elongated by one residue was observed. In lane 3, an expected band with chain elongation stopped at 9mer was observed, and a minor band elongated by one residue was observed. In lane 4, a band of 26mer full-length product was observed.

T1 sequence (P00573 whole entry): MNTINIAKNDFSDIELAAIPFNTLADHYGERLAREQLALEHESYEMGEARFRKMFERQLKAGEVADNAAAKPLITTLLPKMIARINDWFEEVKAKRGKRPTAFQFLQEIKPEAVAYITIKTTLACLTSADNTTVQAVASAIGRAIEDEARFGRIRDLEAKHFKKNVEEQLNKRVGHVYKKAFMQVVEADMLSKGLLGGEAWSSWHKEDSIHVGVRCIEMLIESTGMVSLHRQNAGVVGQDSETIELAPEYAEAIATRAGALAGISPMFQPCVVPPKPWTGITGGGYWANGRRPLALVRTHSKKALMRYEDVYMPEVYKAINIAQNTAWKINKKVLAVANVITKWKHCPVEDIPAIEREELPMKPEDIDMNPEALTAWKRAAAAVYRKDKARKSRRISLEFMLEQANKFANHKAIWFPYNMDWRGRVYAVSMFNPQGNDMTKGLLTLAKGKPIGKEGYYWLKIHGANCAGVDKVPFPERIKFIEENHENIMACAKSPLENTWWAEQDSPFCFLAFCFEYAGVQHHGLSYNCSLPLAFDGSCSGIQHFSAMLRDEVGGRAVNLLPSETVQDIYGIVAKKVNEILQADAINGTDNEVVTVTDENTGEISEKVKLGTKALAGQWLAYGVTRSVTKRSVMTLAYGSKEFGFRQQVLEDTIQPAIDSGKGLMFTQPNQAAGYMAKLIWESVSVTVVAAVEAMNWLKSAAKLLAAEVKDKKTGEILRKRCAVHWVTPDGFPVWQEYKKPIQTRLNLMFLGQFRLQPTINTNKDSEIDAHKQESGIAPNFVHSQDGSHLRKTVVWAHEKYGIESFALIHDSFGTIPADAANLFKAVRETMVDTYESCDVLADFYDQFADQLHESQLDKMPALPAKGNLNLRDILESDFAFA

On to `Nc1ccn([C@@H]2S[C@H](COP(=O)(O)OP(=O)(O)OP(=O)(O)O)[C@@H](O)[C@H]2O)c(=O)n1` [4′-thio CTP, 4′-Thiocytidine 5′-triphosphate], for which the “recognition by T7 RNA polymerase as substrate and incorporation into RNA chain (30mer full-length product)” value at T7 RNA polymerase [1] is reported as “incorporated into RNA chain efficiently”. As for `O=c1ccn([C@@H]2S[C@H](COP(=O)(O)OP(=O)(O)OP(=O)(O)O)[C@@H](O)[C@H]2O)c(=O)[nH]1` [4′-thio UTP, 4′-Thiouridine 5′-triphosphate], the “band of full-length product (26mer RNA) when used instead of UTP” value on T7 RNA polymerase [2] was “approximately the same amount as in lane 4”. In addition, the “recognition by T7 RNA polymerase as substrate and incorporation into RNA chain (30mer full-length product)” value at T7 RNA polymerase [1] is recorded as “incorporated into RNA chain efficiently”.
